In US10363239B2, “Method for inhibiting growth of cancer cells” (Pain Therapeutics, Inc., priority 2013, dated 2019):
Like-named read-outs stand apart in the source and are kept apart here.

Columns and labels:
[1] = target: FLNA pentapeptide of SEQ ID NO: 1 (Bn-VAKGL) (Homo sapiens, UniProt P21333); experiment: FITC-NLX-based FLNA screening assay (inhibition of FITC-naloxone binding to Bn-VAKGL on streptavidin plates); details: for inhibition at 0.01 µM / inhibition at 0.1 µM / inhibition at 1 µM: 10 nM FITC-NLX
[2] = system: mu opiate receptor (MOR); experiment: MOR agonist activity using [35S]GTPγS binding assay in striatal membranes; assay type: biochemical; details: for MOR agonist activity ([35S]GTPγS binding), FLNA-Binding Compound as Agonist 1 μM + BFNA: 1 μM compound + 1 μM β-funaltrexamine
How it was run: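 Striatal membranes (200 μg) were preincubated 5 min at 30 °C in HEPES pH 7.5 with 100 mM NaCl, 1 mM MgCl2 and 0.5 nM [35S]GTPγS, then 5 min more with 0.1–10 μM compound. Gαo was immunoprecipitated and bound radioactivity counted by scintillation.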

[3] = read-out: Percent Binding Inhibition, FLNA-binding compound 0.01 μM
[4] = read-out: Percent Binding Inhibition, FLNA-binding compound 0.1 μM
[5] = read-out: Percent Binding Inhibition, FLNA-binding compound 1 μM
[6] = Series C-1, 0.1 μM compound, relative to DAMGO
[7] = Series C-1, 0.1 μM compound, [35S]GTPγS binding to Gαo, striatal membranes
[8] = Series C-1, 1 μM compound + 1 μM β-FNA
[9] = Series C-1, 1 μM compound + β-FNA, relative to DAMGO + BFNA
[10] = Series C-1, 1 μM compound, relative to DAMGO
[11] = Series C-1, 1 μM compound, [35S]GTPγS binding to Gαo, striatal membranes
[12] = FLNA-binding compound 0.01 μM, read-out: Percent Binding Inhibition
[13] = FLNA-binding compound 0.1 μM, read-out: Percent Binding Inhibition
[14] = FLNA-binding compound 1 μM, read-out: Percent Binding Inhibition
[15] = Series B, 0.1 μM compound, relative to DAMGO
[16] = Series B, 0.1 μM compound, [35S]GTPγS binding to Gαo, striatal membranes
[17] = Series B, 1 μM compound + 1 μM β-FNA
[18] = Series B, 1 μM compound + β-FNA, relative to DAMGO + BFNA
[19] = Series B, 1 μM compound, relative to DAMGO
[20] = Series B, 1 μM compound, [35S]GTPγS binding to Gαo, striatal membranes
[21] = 0.1 μM compound relative to DAMGO
[22] = 1 μM compound + BFNA relative to DAMGO + BFNA
[23] = 1 μM compound relative to DAMGO
[24] = Series C-2, 0.1 μM compound, relative to DAMGO
[25] = Series C-2, 0.1 μM compound, [35S]GTPγS binding to Gαo, striatal membranes
[26] = Series C-2, 1 μM compound + 1 μM β-FNA
[27] = Series C-2, 1 μM compound + β-FNA, relative to DAMGO + BFNA
[28] = Series C-2, 1 μM compound, relative to DAMGO
[29] = Series C-2, 1 μM compound, [35S]GTPγS binding to Gαo, striatal membranes

SMILES | inhibition at 0.01 µM [1, 3] [%] | inhibition at 0.1 µM [1, 4] [%] | inhibition at 1 µM [1, 5] [%] | % DAMGO (0.1 μM) [2, 6] [%] | Concentration of FLNA-Binding Compound as Agonist 0.1 μM [2, 7] [%] | Concentration of FLNA-Binding Compound as Agonist 1 μM + BFNA [2, 8] [%] | % DAMGO + BFNA [2, 9] [%] | % DAMGO (1 μM) [2, 10] [%] | Concentration of FLNA-Binding Compound as Agonist 1 μM [2, 11] [%] | inhibition at 0.01 µM [1, 12] [%] | inhibition at 0.1 µM [1, 13] [%] | inhibition at 1 µM [1, 14] [%] | other results
COc1cccc(S(=O)(=O)N2CCC3(CC2)OCCN3S(=O)(=O)c2cccc(OC)c2)c1 [Compound C0002] | 38.4 | 45.6 | 42.8 | 51.4 | 88.4 | 3.9 | 6.1 | 33.9 | 93.8 |  |  |  | 
O=C(OCc1ccccc1)c1ccc(S(=O)(=O)N2CCC3(CC2)OCCN3S(=O)(=O)c2ccc(C(=O)OCc3ccccc3)cc2)cc1 [Compound C0042] |  |  |  | 98.9 | 167.1 | 110.6 | 666.3 | 119.2 | 260.9 | 42.4 | 49.7 | 56.1 | 
COc1cccc(CC(=O)CC2c3c(cc4c(c3OC)OCO4)CC[N+]2(C)C)c1OC (centres unmarked) [Compound B0038] | 41.2 | 50.1 | 57 |  |  |  |  |  |  |  |  |  | % DAMGO (0.1 μM) [2, 15]: 94.2%; MOR agonist activity, percent [35S]GTPγS binding at the stated compound concentration [2, 16]: 147.5%; MOR agonist activity, percent [35S]GTPγS binding at the stated compound concentration [2, 17]: 117.1%; % DAMGO + BFNA [2, 18]: 359.2%; % DAMGO (1 μM) [2, 19]: 88.7%; MOR agonist activity, percent [35S]GTPγS binding at the stated compound concentration [2, 20]: 205.3%
Cc1cccc(OCC(O)CN2CC(C)OC(C)C2)c1 (centres unmarked) [Compound A0030] |  |  |  |  |  |  |  |  |  | 35.6 | 44.4 | 48.9 | MOR agonist activity ([35S]GTPγS binding), FLNA-Binding Compound as Agonist 0.1 μM ([2]; 0.1 μM compound): 133.4%; % DAMGO (0.1 μM) [2, 21]: 75.5%; MOR agonist activity ([35S]GTPγS binding), FLNA-Binding Compound as Agonist 1 μM ([2]; 1 μM compound): 287.8%; MOR agonist activity ([35S]GTPγS binding), FLNA-Binding Compound as Agonist 1 μM + BFNA [2]: 165.2%; % DAMGO + BFNA [2, 22]: 628.1%; % DAMGO (1 μM) [2, 23]: 113.2%
COc1cc(S(=O)(=O)N2CCC3(CC2)OCCN3S(=O)(=O)c2cc(OC)c(OC)c(OC)c2)cc(OC)c1OC [Compound C0062] |  |  |  | 81.9 | 127.8 | 59.8 | 149.9 | 134.7 | 310.5 | 39.5 | 49.5 | 48 | 
COc1ccc(CCC(O)CC2c3c(cc4c(c3OC)OCO4)CCN2C)cc1 (centres unmarked) [Compound B0048] |  |  |  |  |  |  |  |  |  | 34.7 | 41.9 | 43.9 | % DAMGO (0.1 μM) [2, 15]: 104.8%; MOR agonist activity, percent [35S]GTPγS binding at the stated compound concentration [2, 16]: 185.1%; MOR agonist activity, percent [35S]GTPγS binding at the stated compound concentration [2, 17]: 78.5%; % DAMGO + BFNA [2, 18]: 298.5%; % DAMGO (1 μM) [2, 19]: 87.8%; MOR agonist activity, percent [35S]GTPγS binding at the stated compound concentration [2, 20]: 223.4%
COc1ccc(C(=O)N2CCC3(CC2)OCCN3S(=O)(=O)c2ccc(OC)cc2)cc1 [Compound C0018] |  |  |  | 110.7 | 195.5 | 106.5 | 162.1 | 95.5 | 247.7 | 42.3 | 45.9 | 53.4 | 
COc1ccc(S(=O)(=O)N2CCC3(CC2)NCCC(=O)N3)cc1 [Compound C0142M] | 35.1 | 39.4 | 56 |  |  |  |  |  |  |  |  |  | % DAMGO (0.1 μM) [2, 24]: 97.8%; MOR agonist activity, percent [35S]GTPγS binding at the stated compound concentration [2, 25]: 143.7%; MOR agonist activity, percent [35S]GTPγS binding at the stated compound concentration [2, 26]: 98.7%; % DAMGO + BFNA [2, 27]: 251.1%; % DAMGO (1 μM) [2, 28]: 95.2%; MOR agonist activity, percent [35S]GTPγS binding at the stated compound concentration [2, 29]: 192.5%
CC(C)c1ccc(S(=O)(=O)N2CCC3(CC2)OCCN3S(=O)(=O)c2ccc(C(C)C)cc2)cc1 [Compound C0007] | 40.5 | 46.3 | 48.9 | 46.0 | 79.1 | 10.9 | 17.0 | 70.5 | 195.0 |  |  |  | 
OC(COc1cccc(F)c1)CN1CCc2ccccc2C1 (centres unmarked) [Compound A0055] |  |  |  |  |  |  |  |  |  | 28.1 | 32.4 | 41.8 | MOR agonist activity ([35S]GTPγS binding), FLNA-Binding Compound as Agonist 0.1 μM ([2]; 0.1 μM compound): 89.8%; % DAMGO (0.1 μM) [2, 21]: 53.2%; MOR agonist activity ([35S]GTPγS binding), FLNA-Binding Compound as Agonist 1 μM ([2]; 1 μM compound): 195.2%; MOR agonist activity ([35S]GTPγS binding), FLNA-Binding Compound as Agonist 1 μM + BFNA [2]: 33.5%; % DAMGO + BFNA [2, 22]: 102.4%; % DAMGO (1 μM) [2, 23]: 78.4%
CC1CCC(C(C)C)C(OCC(O)CN2CCCN(C)CC2)C1 (centres unmarked) [Compound A0010] |  |  |  |  |  |  |  |  |  | 36 | 36.5 | 39 | MOR agonist activity ([35S]GTPγS binding), FLNA-Binding Compound as Agonist 0.1 μM ([2]; 0.1 μM compound): 277.2%; % DAMGO (0.1 μM) [2, 21]: 161.9%; MOR agonist activity ([35S]GTPγS binding), FLNA-Binding Compound as Agonist 1 μM ([2]; 1 μM compound): 319.0%; MOR agonist activity ([35S]GTPγS binding), FLNA-Binding Compound as Agonist 1 μM + BFNA [2]: 190.3%; % DAMGO + BFNA [2, 22]: 365.3%; % DAMGO (1 μM) [2, 23]: 119.5%
O=C(c1ccc([N+](=O)[O-])cc1)N1CCC2(CC1)OCCN2C(=O)c1ccc([N+](=O)[O-])cc1 [Compound C0032] | 41.5 | 50.5 | 55.3 | 92.8 | 145.4 | 80.9 | 248.2 | 87.3 | 202.0 |  |  |  | 
Cc1ccc(S(=O)(=O)N2CCOC23CCN(CC2CCC2)CC3)cc1 [Compound 9] |  |  |  |  |  |  |  |  |  |  |  |  | Binding to FLNA (conclusion in words) ([1]; preliminary study): bind well to FLNA; MOR agonist activity, FLNA-Binding Compound as Agonist 0.1 μM (preliminary study) ([2]; 0.1 μM, average of two runs): 156.6%; MOR agonist activity, FLNA-Binding Compound as Agonist 1 μM + βNFA (preliminary study) ([2]; 1 μM + βNFA, average of two runs): 56.6%; MOR agonist activity, FLNA-Binding Compound as Agonist 1 μM (preliminary study) ([2]; 1 μM, average of two runs): 197.2%; MOR agonist activity (conclusion in words) ([2]; preliminary study): MOR agonists
O=C(O)c1ccc(C(=O)N2CCC3(CC2)OCCN3S(=O)(=O)c2ccc(C(=O)O)cc2)cc1 [Compound C0021] |  |  |  | 94.5 | 159.7 | 90.7 | 546.4 | 87.8 | 192.0 | 34 | 38.4 | 40.6 | 
O=S(=O)(c1csc2ccccc12)N1CCC2(CC1)OCCN2S(=O)(=O)c1csc2ccccc12 [Compound C0150M] | 47.3 | 51.8 | 61.4 | 97.2 | 167.1 | 93.4 | 173.2 | 129.8 | 423.1 |  |  |  | 
COc1c2c(cc3c1C(CC(=O)c1ccncc1)[N+](C)(C)CC3)OCO2 (centres unmarked) [Compound B0005] | 31.8 | 34.8 | 41.7 |  |  |  |  |  |  |  |  |  | % DAMGO (0.1 μM) [2, 15]: 50.5%; MOR agonist activity, percent [35S]GTPγS binding at the stated compound concentration [2, 16]: 89.2%; MOR agonist activity, percent [35S]GTPγS binding at the stated compound concentration [2, 17]: 45.1%; % DAMGO + BFNA [2, 18]: 68.6%; % DAMGO (1 μM) [2, 19]: 42.6%; MOR agonist activity, percent [35S]GTPγS binding at the stated compound concentration [2, 20]: 110.4%
COc1ccc(OC)c(CCC(=O)CC2c3c(cc4c(c3OC)OCO4)CC[N+]2(C)C)c1 (centres unmarked) [Compound B0044] | 35.2 | 39.5 | 44.4 |  |  |  |  |  |  |  |  |  | % DAMGO (0.1 μM) [2, 15]: 49.4%; MOR agonist activity, percent [35S]GTPγS binding at the stated compound concentration [2, 16]: 87.3%; MOR agonist activity, percent [35S]GTPγS binding at the stated compound concentration [2, 17]: 134.6%; % DAMGO + BFNA [2, 18]: 511.8%; % DAMGO (1 μM) [2, 19]: 66.9%; MOR agonist activity, percent [35S]GTPγS binding at the stated compound concentration [2, 20]: 170.0%
CCN1CCC2(CC1)OCCN2S(=O)(=O)c1ccc(C(C)=O)cc1 [Compound C0094M] |  |  |  |  |  |  |  |  |  | 43 | 52.8 | 57.5 | % DAMGO (0.1 μM) [2, 24]: 100.2%; MOR agonist activity, percent [35S]GTPγS binding at the stated compound concentration [2, 25]: 172.5%; MOR agonist activity, percent [35S]GTPγS binding at the stated compound concentration [2, 26]: 115.3%; % DAMGO + BFNA [2, 27]: 334.2%; % DAMGO (1 μM) [2, 28]: 119.9%; MOR agonist activity, percent [35S]GTPγS binding at the stated compound concentration [2, 29]: 263.5%
